From patent publication US9750742B2, “Small molecular inhibitors of RAD51 recombinase and methods thereof” (Drexel University, priority 2011, dated 2017)

Assays:
RAD51 [1] = molecular target: T1, RAD51 (Homo sapiens, UniProt Q06609); assay: D-loop assay for RAD51; format: biochemical; details: compounds 100 μM; RAD51 1 μM
T1 construct: made in house
T1 sequence (Q06609 1-339): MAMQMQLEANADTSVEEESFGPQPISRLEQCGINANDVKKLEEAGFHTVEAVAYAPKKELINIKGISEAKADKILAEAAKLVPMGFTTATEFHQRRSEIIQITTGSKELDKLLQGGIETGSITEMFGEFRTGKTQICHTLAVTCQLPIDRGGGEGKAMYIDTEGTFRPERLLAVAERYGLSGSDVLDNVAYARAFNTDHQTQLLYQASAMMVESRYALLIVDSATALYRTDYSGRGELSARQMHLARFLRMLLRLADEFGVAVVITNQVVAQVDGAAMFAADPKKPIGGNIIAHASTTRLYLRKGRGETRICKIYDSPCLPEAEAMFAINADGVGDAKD
Experimental: When indicated, chemical compounds in question were added in specified concentrations and incubation was continued for 30 min at 37° C. D-loop formation was initiated by addition of supercoiled pUC19 dsDNA (50 μM, nt) and continued for 15 min. Reactions were stopped by addition of SDS to 1% (w/v) and proteinase K to 880 μg ml^−1 followed by incubation for 15 min at 37° C. […] The yield of joint molecules was expressed as a percentage of the total plasmid DNA.
The reaction was deproteinized and analyzed as described above.
(§1) IC50 values were calculated using GraphPad Prism V5.0 software and the sigmoidal dose-response function. The data were obtained from three independent repeats of experiments.

RecA = molecular target: T2, RecA (Escherichia coli, UniProt P0A7G6); assay: biochemical; design: species or system E. coli
T2 construct: purchased USB Inc. (Cleveland, Ohio)
T2 sequence (P0A7G6 whole entry): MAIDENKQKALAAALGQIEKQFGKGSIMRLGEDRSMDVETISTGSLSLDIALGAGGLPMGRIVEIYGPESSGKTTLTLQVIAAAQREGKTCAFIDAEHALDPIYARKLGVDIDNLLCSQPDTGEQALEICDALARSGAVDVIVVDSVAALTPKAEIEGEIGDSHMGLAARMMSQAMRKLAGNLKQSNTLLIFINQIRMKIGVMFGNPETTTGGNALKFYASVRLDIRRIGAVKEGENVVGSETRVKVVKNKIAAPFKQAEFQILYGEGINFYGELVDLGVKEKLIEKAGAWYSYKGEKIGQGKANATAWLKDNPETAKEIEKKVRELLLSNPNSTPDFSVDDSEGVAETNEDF
Experimental: (Mazin et al., 2000, EMBO J. 19:1148-56). When indicated, chemical compounds in specified concentrations were added and incubation was continued for 30 min at 37° C. D-loop formation was initiated by addition of supercoiled pUC19 dsDNA (50 μM, nt) and carried out for 3 min at 37° C. The DNA products were deproteinized and analyzed as described above for the Rad51-promoted reaction.
as §1

RAD51 [2] = molecular target: T1, RAD51; assay: Effect on RAD51 oligomerization (gel filtration); details: B02 200 μM, RAD51 13.5 μM
Experimental: The samples were then centrifuged for 15 min at 16,000×g, 4° C. Supernatants were loaded on a Superose 6 10/300 GL column (GE Healthcare) equilibrated with buffer E and eluted with a flow rate of 0.2 ml/min at 4° C. The gel filtration molecular weight marker kit (29-669 kDa, Sigma) was used for column calibration. The 0.3-ml fractions were collected and analyzed by electrophoresis in a 12% SDS-PAGE gel (100 V, 90 min).

O=c1c2ccccc2nc(/C=C/c2cccnc2)n1Cc1ccccc1 [Compound B02, (E)-3-benzyl-2-(2-(pyridin-3-yl)vinyl)quinazolin-4(3H)-one] was tested. Which “Joint Molecules (%)” value (RAD51 [1]) did it give?
Its value is 6.0 ± 0.5%.

And the IC50 (RecA; IC50 (RecA), RecA 1 μM, ssDNA 3 μM, dsDNA 50 μM)?
The IC50 was greater than 250 µM.

What about the IC50 (RecA; IC50 for RecA (D-loop), RecA 0.3 μM, ssDNA 0.9 μM, dsDNA 15 μM, B02 incubated with protein before ssDNA) of the same molecule?
The IC50 was greater than 100 µM.

What about the “inhibition of RecA DNA strand exchange, in words” value (RecA; up to 250 μM) of the same molecule?
The value was “no significant inhibition”.

And the RAD51 oligomerization (RAD51 [2])?
The RAD51 oligomerization was “does not affect RAD51 oligomerization”.
